Measured values: publication PMC4264199, “Peptide Array on Cellulose Support—A Screening Tool to Identify Peptides with Dipeptidyl-Peptidase IV Inhibitory Activity within the Sequence of α-Lactalbumin” (International Journal of Molecular Sciences, 2014)
Several values for one entry are separate records, joined by “and”; a condition that tells them apart may be missing. Equal values may be shown once. Entries after “also recorded” stand apart in the source; their conditions may differ. Ends that are not written are not given here.

How the values were obtained:
[1] = molecular target: T1, dipeptidyl-peptidase IV (DPP-IV) (Homo sapiens, UniProt P27487); experiment: Probing of membrane-bound peptide arrays: binding of DPP-IV to deca-peptides (immunoassay, chemiluminescence); details: for Binding of DPP-IV to cellulose-bound deca-peptide (in words): peptide array on cellulose membrane, DPP-IV 10 μg/mL
T1 construct: purchased Creative BioMart (Shirley, NY, USA); host or cells: HEK293 human cells
T1 sequence (P27487 whole entry): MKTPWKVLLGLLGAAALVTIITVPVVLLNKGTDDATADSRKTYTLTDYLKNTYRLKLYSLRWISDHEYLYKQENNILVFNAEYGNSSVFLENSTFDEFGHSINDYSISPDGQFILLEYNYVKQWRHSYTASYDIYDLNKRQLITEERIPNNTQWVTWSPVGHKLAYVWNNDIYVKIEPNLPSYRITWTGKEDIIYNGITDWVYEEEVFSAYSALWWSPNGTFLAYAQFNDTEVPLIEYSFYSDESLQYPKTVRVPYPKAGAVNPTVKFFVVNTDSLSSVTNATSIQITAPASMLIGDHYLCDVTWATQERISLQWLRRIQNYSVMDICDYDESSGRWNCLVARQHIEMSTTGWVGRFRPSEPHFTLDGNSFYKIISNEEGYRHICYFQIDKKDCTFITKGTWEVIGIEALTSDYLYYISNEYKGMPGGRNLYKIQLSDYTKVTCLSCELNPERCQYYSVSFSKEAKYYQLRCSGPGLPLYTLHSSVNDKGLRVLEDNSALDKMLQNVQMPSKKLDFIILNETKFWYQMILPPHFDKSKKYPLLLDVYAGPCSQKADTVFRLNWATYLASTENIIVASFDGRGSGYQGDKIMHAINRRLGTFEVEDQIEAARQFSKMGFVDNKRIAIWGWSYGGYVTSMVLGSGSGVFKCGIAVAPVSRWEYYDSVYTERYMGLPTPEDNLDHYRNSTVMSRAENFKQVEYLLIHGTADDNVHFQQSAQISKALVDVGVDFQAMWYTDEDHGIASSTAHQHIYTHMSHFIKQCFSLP
Method: The interaction between the DPP-IV enzyme and deca-peptides spanning the entire α-lactalbumin sequence (Table S1) was first determined by immunoassay and visualized using an enhanced chemiluminescence substrate (Figure 1).
The membranes were first blocked with protein-free (Tris-buffered saline (TBS)) blocking buffer containing 0.05% Tween-20 for 4 h at room temperature and then incubated with DPP-IV (10 μg/mL in blocking buffer) overnight at 4 °C. The membranes were washed with TBS (50 mM Tris, 136 mM NaCl, 0.05% Tween-20, pH 8.0) four times for 15 min each, after which they were incubated with the polyclonal goat DPP-IV antibody (0.2 µg/mL) for 8 h at 4 °C. The membranes were once again washed with TBS four times for 15 min each prior to being incubated with anti-goat secondary antibody conjugated to horseradish peroxidase (0.1 µg/mL) overnight at 4 °C. Finally, the membranes were washed four more times for 15 min each; then a thin layer of chemiluminescence detection mixture, prepared according to the manufacturer’s instructions, was applied for 1 min and the luminescence generated from the spots on the membranes with bound DPP-IV was measured using a ChemiDoc™ MP system (Bio-Rad Laboratories (Canada) Ltd., Mississauga, ON, Canada).

DPP-IV = details: Table S2; cited from earlier work
[2] = molecular target: T1, dipeptidyl-peptidase IV (DPP-IV); experiment: DPP-IV inhibition assay on SPOT-synthesized peptides (cleaved from cellulose membrane); assay type: biochemical; details: for Percent inhibition of DPP-IV activity, SPOT-synthesized deca-peptides: peptides cleaved from cellulose membrane, concentration not known (semi-quantitative), averages of four determinations from two experiments
Method in brief: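 Human DPP-IV expressed in HEK293 cells, with Gly–Pro–p-NA substrate (0.29 mM stock), was tested against α-lactalbumin decapeptides ammonia-cleaved from SPOT cellulose membranes and eluted in 50% acetonitrile/Tris, pH 8.0. After a 10-min preincubation, reaction ran 30 min at 37 °C, was stopped at pH 4.0, and p-nitroaniline absorbance was read at 405 nm.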

[3] = molecular target: T1, dipeptidyl-peptidase IV (DPP-IV); experiment: DPP-IV inhibition assay on traditionally-synthesized peptides; assay type: biochemical; details: 250 µM of peptides (final assay concentration); averages of three determinations
Source text: Recombinant human dipeptidyl-peptidase IV (DPP-IV, EC 3.4.14.5, expressed in HEK293 human cells, >95% purity, activity >5500 pmoles Gly–Pro–7-amido-4-methylcoumarin/min/µg) was purchased from Creative BioMart (Shirley, NY, USA) while polyclonal goat DPP-IV antibody and polyclonal donkey anti-goat secondary antibody conjugated to horseradish peroxidase were obtained from R&D Systems (Minneapolis, MN, USA). Pierce™ ECL western blotting substrate and protein-free (TBS) blocking buffer were from Thermo Scientific (Rockford, IL, USA). Gly–Pro–p-nitroanilide (H-Gly–Pro–p-NA∙HCl) was purchased from Bachem Americas (Torrance, CA, USA). Synthesized peptides (≥95% purity) were prepared and purified by GL Biochem (Shanghai) Ltd. (Shanghai, China).
The peptides were dissolved in a mixture of acetonitrile and H2O and further diluted in 100 mM Tris-HCl pH 8.0 buffer to the desired concentrations. In a 96-well microplate, 25 µL of sample were pre-incubated with 25 µL of 100 mM Tris-HCl pH 8.0 buffer and 35 µL of Gly–Pro–p-NA (0.29 mM in 100 mM Tris-HCl buffer pH 8.0) at 37 °C for 10 min. The enzymatic reaction was started by addition of 15 µL of DPP-IV solution (25 mU/mL) and carried out at 37 °C for 30 min. Sodium acetate buffer (1 M, pH 4.0, 100 µL) was added to stop the reaction and the absorbance of the released p-nitroaniline was measure at 405 nm using a Tecan Infinite® 200 Pro microplate reader. The positive and negative controls were prepared by using Tris-HCl buffer (100 mM, pH 8.0) in place of the sample and in place of the sample and enzyme solution, respectively.

[4] = molecular target: T1, dipeptidyl-peptidase IV (DPP-IV); experiment: Determination of the mode of inhibition and the inhibition constant (Ki); assay type: biochemical
Method: The traditionally-synthesized peptides showing the highest inhibitory activity against DPP-IV were further studied for their mode of action on the enzyme as previously described with the following modifications: the substrate (25 µL) was combined with 100 mM Tris-HCl buffer pH 8.0 (35 µL) and the sample (25 µL) and pre-incubated for 10 min at 37 °C, after which the enzymatic reaction was started by addition of the DPP-IV enzyme (15 µL of a 25 mU/mL solution).
The mode of inhibition and Ki values of the inhibitory peptides were determined by fitting the initial velocity versus substrate concentration data to nonlinear regression models using the GraphPad Prism software (version 6, GraphPad Software, San Diego, CA, USA). The Ki values are expressed as final assay concentrations.

| Sequence | Binding of DPP-IV to cellulose-bound deca-peptide (in words) [1] | Reported Relationship to DPP-IV (DPP-IV) | Percent inhibition of DPP-IV activity, SPOT-synthesized deca-peptides [2] [%] | inhibition at 250 µM [3] [%] | Ki [4] [µM] | other results |
| --- | --- | --- | --- | --- | --- | --- |
| IVTQTMKGLD [K5, reference compound] | found to bind to DPP-IV | Weak inhibitor | 16 | – | – | – |
| LKPTPEGDLE [K6, LKPTPEGDLE] | – | – | 23 | 24 | 729 ± 128 | – |
| LCSEKLDQWL [J11, LCSEKLDQWL] | – | – | 25 | 25 | 217 ± 15 | – |
| LKPTPEGDL | – | inhibitors | – | – | – | – |
| LAHKALCSEK [J6, LAHKALCSEK] | – | – | 27 | 31 | 217 ± 9 | – |
| HSQGTFTSDY [K8, reference compound] | found to bind to DPP-IV | Inhibitor | 15 | – | – | – |
| LKPTPEGDLEIL | – | inhibitors | – | – | – | – |
| IPAVFKIDA | – | inhibitor | – | – | – | – |
| YAEGTFISDY [K9, reference compound] | found to bind to DPP-IV | – | 24 | – | – | – |
| VKKILDKVGI [I4] | strongest binding to DPP-IV | – | 18 | – | – | Percent inhibition of DPP-IV activity, SPOT-synthesized deca-peptides ([2]; listed as VKKILDKVGI): less than 20% |
| IPAVFKIDAL [K7, IPAVFKIDAL] | – | – | 25 | 48 | 156 ± 11 | – |
| WCKDDQNPHS [F5] | moderate or no binding; also recorded: no or only moderate interaction with DPP-IV | – | 29 | – | – | % DPP-IV Inhibition Traditionally-Synthesized [3]: 51%; αKi ([4]; traditionally synthesized peptide, un-competitive inhibition, final assay concentration, average ± standard error, triplicate): 76 µM and 76 ± 5 µM; Mode of Inhibition ([4]; traditionally synthesized peptides, Lineweaver-Burk / nonlinear regression): Un-competitive; Category: binding ([1]; peptide array spot, relative luminescence intensity): moderate/no binding; Category: inhibitory activity ([2]; class by decrease in DPP-IV activity): High inhibitory activity (High inhibitory activity refers to peptides able to cause more than 20% decrease in DPP-IV activity) |
| LPEWVCTTFH [C1, LPEWVCTTFH] | – | – | 26 | 26 | 300 ± 16 | – |
| YPSKPDNPGE [K11, YPSKPDNPGE, reference compound] | – | – | 31 | 25 | 262 ± 17 | – |
| KKILDKVGIN [I5] | strongest binding to DPP-IV | – | 17 | – | – | Percent inhibition of DPP-IV activity, SPOT-synthesized deca-peptides ([2]; listed as KKILDKVGIN): less than 20% |
| ICNISCDKFL [G6] | moderate or no binding | – | 31 | – | – | – |
